The values below are quoted from earlier work in US20190021988A1, “ENHANCED TRANSDERMAL DELIVERY OF ACTIVE AGENTS” (priority 2016, published 2019).

The subject of this data set is desmosome-induced tight junctions between corneocytes.

For “TD-1: skin penetrating peptide with the amino acid sequence ACSSSPSKHCG, disclosed in WO2007/035474”, the “time until cell gaps are restored after treatment” value (after treatment) was 1 h. The “space between cells after topical application” value (change from about 30 nm, in 30 minutes from topical application) was “about 466 nm”.
